pIC50: −log10 of the molar value.
Columns and labels:
VEGF-A secretion = test: Measurement of VEGF-A production (alphaLISA) in HCT116 culture supernatants; assay type: cell-based, human; settings: for pIC50: determined after 12 h (n = 3)
Experimental: Human colon adenocarcinoma HCT116 cells were purchased from ATCC (Manassas, Va.) and cultured in Dulbecco's modified Eagle's medium (Invitrogen, Carlsbad, Calif.) supplemented with 10% fetal bovine serum (HyClone, Logan, Utah) at 37° C. humidified air and 5% CO2.
HCT116 cells (1×10^4 cells per well) were seeded in 96-well plates and one day later treated with various concentrations of apratoxins or solvent control. After 12 h of incubation, culture supernatants were collected for detection of VEGF-A by using an alphaLISA kit (PerkinElmer, Waltham, Mass.) following the manufacturer's instructions. Briefly, acceptor bead and anti-VEGF antibody were incubated first with the supernatants for 60 min, donor beads were added later and incubated for another 30 min and then VEGF-A levels detected using Envision (PerkinElmer).

[1] = Plasma stability in mouse serum; assay type: in vitro ADME; settings: up to 24 h, FIG. 2C
Experimental: In vitro plasma stability of apratoxin A, S4 (BK), S7 (BL), S8 (BM) and S9 (BN) was done by using a modification of a published method [Chen, X.; Gardner, E. R.; Figg, W. D. J. Chromatogr. B Analyt. Technol. Biomed. Life Sci. 2008, 86, 153-158]. Ten microliters of apratoxin A, BK, BL, BM, or BN (25 μg/mL) were added to 100 μL of mouse serum, and the solution was vortex-mixed for 15 s and incubated for 0.25 min to 24 h (11 time points). At the end of each incubation period, 400 μL of ethyl acetate was added to each tube, followed by 200 μL of harmine to quench the reaction and to extract the remaining apratoxin A or S4 (BK), S7 (BL), S8 (BM) and S9 (BN). Samples were further incubated in a thermomixer at 27° C. (750 rpm, 5 min) and later centrifuged for 5 min at 1643 g. The ethyl acetate layer was collected and evaporated to dryness under nitrogen. Samples were reconstituted in 50 μL of acetonitrile. A volume of 10 μL of the reconstituted solution was injected into the HPLC-MS system.
Analysis of apratoxin A, S4 (BK), S7 (BL), S8 (BM) and S9 (BN) was done by using HPLC-MS [column, Onyx Monolithic C18 (3.0×100 mm), Phenomenex (Torrance, Calif.); solvent, water (solvent A) acetonitrile (solvent B); flow rate, 0.5 ml/min; detection by electrospray ionization-MS in positive ion mode (MRM scan)]. A stepwise gradient elution was used starting at 60% B and 40% A, then increasing to 80% B at 5 min and maintained at this condition for 5 min. Parameters were optimized before analysis by using direct syringe infusion. The retention times (tR, min; MRM ion pair) of the analytes and internal standard are as follows: harmine (2.2; 213.1→169.9), apratoxin A (4.7; 841.4→445.2), apratoxin S4 (BK) (4.1; 828.5→432.2), apratoxin S7 (BL) (4.05; 814.5→418.2), apratoxin S8 (BM) (5.2; 842.5→446.2), apratoxin S9 (BN) (4.9; 828.5→432.2). […]
Calibration curves for apratoxin A, S4 (BK), S7 (BL), S8 (BM) and S9 (BN) in the presence of mouse serum, HCT116 cell lysates, and aqueous solutions were generated by least-square linear regression analysis of the analyte peak area and internal standard peak area ratio against the nominal concentration of the standard solutions. A linear regression analysis was performed, and the concentration of remaining apratoxins at each time point was determined through interpolation for plasma, cellular, and aqueous stability experiments. The amount of remaining apratoxins with microsome incubation was determined from the peak area ratio of apratoxins at tx (3 min to 3 h) and t0. All calculations were done by using Analyst 1.4.2 (Applied Biosystems) Quantitate Mode.

HCT116 xenograft = test: In vivo efficacy, HCT116 xenograft mouse model
Experimental: 3-5 week old female nude mice (nu/nu) were obtained from Charles River Laboratory (Wilmington, Mass.). 1×10^6 HCT116 cells in a volume of 100 μL of sterile saline were injected subcutaneously on the left rear flank of a nude mouse to establish tumors. Tumor dimensions were measured using calipers every day and tumor volumes were calculated using the formula W^2×L×0.5, where width (W)≤length (L). Tumors with a starting volume bigger than 100 mm^3 were excluded from the analysis. Mice were injected intraperitoneally with the doses of 2 μg/mouse (0.1 mg/kg), 5 μg/mouse (0.25 mg/kg) of apratoxin S8 (BM) or solvent (DMSO) control every day until the tumor size in one dimension reached 15 mm and tumor tissue was harvested on the following day. 50 mg of tumor tissue was sonicated in PhosphoSafe lysis buffer (EMD chemicals, Inc) and used for immunoblot analysis described as the above. All studies were carried out under the protocol approved by the Institutional Animal Care and Use Committee at the University of Florida.

SMILES | pIC50 (VEGF-A secretion) | plasma stability [1] | dose dependence of tumor growth inhibition (HCT116 xenograft; 0.1 and 0.25 mg/kg daily i.p.) | signs of toxicity (weight loss, abnormal behavior) (HCT116 xenograft; 0.1 and 0.25 mg/kg daily i.p., nude mice) | effect on tumor growth (HCT116 xenograft; higher dose 0.25 mg/kg daily i.p., about 2 weeks) | tumor growth inhibition (HCT116 xenograft; lower dose 0.1 mg/kg daily i.p., about 2 weeks) | potency relative to the other apratoxins, VEGF-A secretion (VEGF-A secretion)
CC[C@H](C)[C@H]1C(=O)N2CCC[C@@H]2C(=O)O[C@H](C(C)(C)C)C[C@@H](C)C[C@H](O)CC2=N[C@@H](CCC(=O)N[C@@H](Cc3ccc(OC)cc3)C(=O)N(C)[C@@H](C)C(=O)N1C)CS2 [apratoxin S7 (BL), Apratoxin S7] | 9.52 | excellent | – | – | – | – | –
CC[C@H](C)[C@H]1C(=O)N2CCC[C@@H]2C(=O)O[C@H](C(C)(C)C)C[C@@H](C)C[C@H](O)C(C)(C)C2=N[C@@H](CCC(=O)N[C@@H](Cc3ccc(OC)cc3)C(=O)N(C)[C@@H](C)C(=O)N1C)CS2 [apratoxin S8 (BM), Apratoxin S8] | 9.33 | excellent | clear dose-dependent tumor growth inhibition | did not observe signs of toxicity | strongly retarded the tumor growth | about 50% | –
CC[C@H](C)[C@H]1C(=O)N2CCC[C@@H]2C(=O)O[C@H](C(C)(C)C)C[C@@H](C)C[C@H](O)[C@H](C)C2=N[C@H](CCC(=O)N[C@@H](Cc3ccc(OC)cc3)C(=O)N(C)[C@@H](C)C(=O)N1C)CS2 [apratoxin S9 (BN), Apratoxin S9] | 9.92 | excellent | – | – | – | – | 2-3 fold
